# Measured values reported in US20240239861A1, “GLUCAGON-RECEPTOR SELECTIVE POLYPEPTIDES AND METHODS OF USE THEREOF” (i2O Therapeutics, Inc., priority 2016, published 2024).
# Where a SMILES comes first, the peptide text is derived from it. [ ]: non-standard residue; d: D form. Aib = CC(C)(N)C(=O)O
# Columns and labels:
# [1] = target: human GCGR (Homo sapiens, UniProt P47871); experiment: Peptide-receptor mediated cAMP accumulation (LANCE Ultra cAMP) in CHO-K1 cells transfected with human GCGR; format: cell-based; conditions: Table 3
# human GCGR, sequence (P47871 26-477): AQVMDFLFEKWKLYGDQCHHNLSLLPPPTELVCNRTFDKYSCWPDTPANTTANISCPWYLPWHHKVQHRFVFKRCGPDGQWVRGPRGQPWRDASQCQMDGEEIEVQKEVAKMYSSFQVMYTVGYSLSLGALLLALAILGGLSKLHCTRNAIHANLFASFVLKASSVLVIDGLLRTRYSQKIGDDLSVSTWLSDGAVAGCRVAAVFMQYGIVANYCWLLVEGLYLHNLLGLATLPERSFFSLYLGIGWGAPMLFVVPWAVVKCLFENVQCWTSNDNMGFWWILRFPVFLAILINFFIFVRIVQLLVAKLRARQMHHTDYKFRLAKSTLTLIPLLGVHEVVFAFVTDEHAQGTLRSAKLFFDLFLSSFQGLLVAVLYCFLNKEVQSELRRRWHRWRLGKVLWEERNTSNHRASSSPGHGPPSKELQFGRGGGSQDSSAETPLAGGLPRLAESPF
# [2] = target: human GLP-1R (Homo sapiens, UniProt P43220); experiment: Peptide-receptor mediated cAMP accumulation (LANCE Ultra cAMP) in CHO-K1 cells transfected with human GLP-1R; format: cell-based; conditions: hGLP1 pEC50 (cAMP mean (n = 3): 11 point curve starting at 1 nM, Table 3)
# human GLP-1R, sequence (P43220 24-463): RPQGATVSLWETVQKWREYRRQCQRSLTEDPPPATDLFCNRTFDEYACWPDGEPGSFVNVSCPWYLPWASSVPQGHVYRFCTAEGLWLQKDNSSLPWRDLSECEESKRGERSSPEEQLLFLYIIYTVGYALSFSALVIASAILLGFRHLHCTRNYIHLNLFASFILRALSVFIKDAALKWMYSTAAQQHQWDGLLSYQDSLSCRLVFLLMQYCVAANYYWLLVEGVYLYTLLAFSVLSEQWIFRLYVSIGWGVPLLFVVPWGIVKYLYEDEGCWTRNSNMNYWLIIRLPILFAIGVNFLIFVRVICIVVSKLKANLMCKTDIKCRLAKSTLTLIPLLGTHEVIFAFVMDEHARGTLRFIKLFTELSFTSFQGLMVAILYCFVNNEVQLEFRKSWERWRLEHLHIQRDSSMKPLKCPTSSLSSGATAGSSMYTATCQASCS
Compound,EC50 [1] [pM],EC50 [2] [pM]
CC(C)C[C@H](NC(=O)[C@H](Cc1c[nH]c2ccccc12)NC(=O)[C@H](CCCCN)NC(=O)[C@H](CO)NC(=O)[C@H](Cc1ccc(O)cc1)NC(=O)[C@H](CC(=O)O)NC(=O)[C@H](CO)NC(=O)[C@@H](NC(=O)[C@H](Cc1ccccc1)NC(=O)[C@@H](NC(=O)CNC(=O)[C@H](Cc1c[nH]cn1)NC(=O)[C@@H](NC(=O)[C@@H](N)Cc1ccc(O)cc1)[C@@H](C)O)[C@@H](C)O)[C@@H](C)O)C(=O)N[C@@H](CC(=O)O)C(=O)N[C@@H](CO)C(=O)N[C@@H](CCCCN)C(=O)N[C@@H](CCCNC(=N)N)C(=O)N[C@@H](C)C(=O)N[C@@H](CCC(N)=O)C(=O)N[C@@H](CCC(=O)O)C(=O)N[C@@H](Cc1ccccc1)C(=O)N[C@H](C(=O)N[C@@H](CCCCN)C(=O)N[C@@H](Cc1c[nH]c2ccccc12)C(=O)N[C@@H](CC(C)C)C(=O)N[C@@H](CCC(=O)O)C(=O)N[C@@H](CC(=O)O)C(=O)N[C@@H](CCC(=O)O)C(=O)N1CCC[C@H]1C(=O)N[C@@H](CO)C(=O)N[C@@H](CO)C(=O)NCC(=O)N[C@@H](C)C(=O)N1CCC[C@H]1C(=O)N1CCC[C@H]1C(=O)N1CCC[C@H]1C(=O)N[C@@H](CO)C(=O)O)C(C)C [Compound A42] (H-YTHGTFTSDYSKWLDSKRAQEFVKWLEDEPSSGAPPPS-OH; N-terminus assumed),398,> 1000
CC(C)C[C@H](NC(=O)[C@H](Cc1c[nH]c2ccccc12)NC(=O)[C@H](CC(C)C)NC(=O)[C@@H](NC(=O)[C@H](Cc1ccccc1)NC(=O)[C@H](CCC(=O)O)NC(=O)[C@H](CCC(N)=O)NC(=O)[C@H](C)NC(=O)[C@H](CCCNC(=N)N)NC(=O)[C@H](CCCCN)NC(=O)C(C)(C)NC(=O)[C@H](CC(=O)O)NC(=O)[C@H](CC(C)C)NC(=O)[C@H](Cc1ccc(O)cc1)NC(=O)[C@H](CCCCN)NC(=O)[C@H](CO)NC(=O)[C@H](Cc1ccc(O)cc1)NC(=O)[C@H](CC(=O)O)NC(=O)[C@H](CO)NC(=O)[C@@H](NC(=O)[C@H](Cc1ccccc1)NC(=O)[C@@H](NC(=O)CNC(=O)[C@H](Cc1c[nH]cn1)NC(=O)[C@H](CO)NC(=O)[C@@H](N)Cc1ccc(O)cc1)[C@@H](C)O)[C@@H](C)O)C(C)C)C(=O)N[C@@H](CCC(=O)O)C(=O)N[C@@H](CC(=O)O)C(=O)N[C@@H](CCC(=O)O)C(=O)N1CCC[C@H]1C(=O)N[C@@H](CO)C(=O)N[C@@H](CO)C(=O)NCC(=O)N[C@@H](C)C(=O)N1CCC[C@H]1C(=O)N1CCC[C@H]1C(=O)N1CCC[C@H]1C(=O)N[C@@H](CO)C(=O)O [Compound A53] (H-YSHGTFTSDYSKYLD[Aib]KRAQEFVLWLEDEPSSGAPPPS-OH; N-terminus assumed),2.51,> 1000
CC(C)C[C@H](NC(=O)[C@H](Cc1ccc(O)cc1)NC(=O)[C@H](CCCCN)NC(=O)[C@H](CO)NC(=O)[C@H](Cc1ccc(O)cc1)NC(=O)[C@H](CC(=O)O)NC(=O)[C@H](CO)NC(=O)[C@@H](NC(=O)[C@H](Cc1ccccc1)NC(=O)[C@@H](NC(=O)CNC(=O)[C@H](Cc1c[nH]cn1)NC(=O)[C@@H](NC(=O)[C@@H](N)Cc1ccc(O)cc1)[C@@H](C)O)[C@@H](C)O)[C@@H](C)O)C(=O)N[C@@H](CC(=O)O)C(=O)NC(C)(C)C(=O)N[C@@H](CCCCN)C(=O)N[C@@H](CCCNC(=N)N)C(=O)N[C@@H](C)C(=O)N[C@@H](CCC(N)=O)C(=O)N[C@@H](CCC(=O)O)C(=O)N[C@@H](Cc1ccccc1)C(=O)N[C@H](C(=O)NC(C)(C)C(=O)N[C@@H](Cc1c[nH]c2ccccc12)C(=O)N[C@@H](CC(C)C)C(=O)N[C@@H](CCC(=O)O)C(=O)N[C@@H](CC(=O)O)C(=O)N[C@@H](CCC(=O)O)C(=O)N1CCC[C@H]1C(=O)N[C@@H](CO)C(=O)N[C@@H](CO)C(=O)NCC(=O)N[C@@H](CCCCN)C(=O)N1CCC[C@H]1C(=O)N1CCC[C@H]1C(=O)N1CCC[C@H]1C(=O)N[C@@H](CO)C(=O)O)C(C)C [Compound A60] (H-YTHGTFTSDYSKYLD[Aib]KRAQEFV[Aib]WLEDEPSSGKPPPS-OH; N-terminus assumed),5.01,> 1000

# Second part, the compound after the results:
EC50 [1] [pM],EC50 [2] [pM],Compound
2,> 1000,CC(C)C[C@H](NC(=O)[C@H](Cc1ccc(O)cc1)NC(=O)[C@H](CCCCN)NC(=O)[C@H](CO)NC(=O)[C@H](Cc1ccc(O)cc1)NC(=O)[C@H](CC(=O)O)NC(=O)[C@H](CO)NC(=O)[C@@H](NC(=O)[C@H](Cc1ccccc1)NC(=O)[C@@H](NC(=O)CNC(=O)[C@H](Cc1c[nH]cn1)NC(=O)[C@H](CO)NC(=O)[C@@H](N)Cc1ccc(O)cc1)[C@@H](C)O)[C@@H](C)O)C(=O)N[C@@H](CC(=O)O)C(=O)NC(C)(C)C(=O)N[C@@H](CCCCN)C(=O)N[C@@H](CCCNC(=N)N)C(=O)N[C@@H](C)C(=O)N[C@@H](CCC(N)=O)C(=O)N[C@@H](CCC(=O)O)C(=O)N[C@@H](Cc1ccccc1)C(=O)N[C@H](C(=O)NC(C)(C)C(=O)N[C@@H](Cc1c[nH]c2ccccc12)C(=O)N[C@@H](CC(C)C)C(=O)N[C@@H](CCC(=O)O)C(=O)N[C@@H](CC(=O)O)C(=O)N[C@@H](CCC(=O)O)C(=O)N[C@@H](CCCCN)C(=O)N[C@@H](CCCNC(=N)N)C(=O)N[C@@H](CC(N)=O)C(=O)N[C@@H](CCCCN)C(=O)N1CCC[C@H]1C(=O)N1CCC[C@H]1C(=O)N1CCC[C@H]1C(=O)N[C@@H](C)C(=O)O)C(C)C [Compound A45] (H-YSHGTFTSDYSKYLD[Aib]KRAQEFV[Aib]WLEDEKRNKPPPA-OH; N-terminus assumed)
3.16,> 1000,CC(C)C[C@H](NC(=O)[C@H](Cc1ccc(O)cc1)NC(=O)[C@H](CCCCN)NC(=O)[C@H](CO)NC(=O)[C@H](Cc1ccc(O)cc1)NC(=O)[C@H](CC(=O)O)NC(=O)[C@H](CO)NC(=O)[C@@H](NC(=O)[C@H](Cc1ccccc1)NC(=O)[C@@H](NC(=O)CNC(=O)[C@H](Cc1c[nH]cn1)NC(=O)[C@H](CO)NC(=O)[C@@H](N)Cc1ccc(O)cc1)[C@@H](C)O)[C@@H](C)O)C(=O)N[C@@H](CC(=O)O)C(=O)NC(C)(C)C(=O)N[C@@H](CCCCN)C(=O)N[C@@H](CCCNC(=N)N)C(=O)N[C@@H](C)C(=O)N[C@@H](CCC(N)=O)C(=O)N[C@@H](CCC(=O)O)C(=O)N[C@@H](Cc1ccccc1)C(=O)N[C@H](C(=O)NC(C)(C)C(=O)N[C@@H](Cc1c[nH]c2ccccc12)C(=O)N[C@@H](CC(C)C)C(=O)N[C@@H](CCC(=O)O)C(=O)N[C@@H](CC(=O)O)C(=O)N[C@@H](CCC(=O)O)C(=O)N[C@@H](CCCCN)C(=O)N[C@@H](CCCNC(=N)N)C(=O)N[C@@H](CC(N)=O)C(=O)N[C@@H](CCCCN)C(=O)N[C@@H](CC(N)=O)C(=O)N1CCC[C@H]1C(=O)N1CCC[C@H]1C(=O)N[C@@H](CO)C(=O)O)C(C)C [Compound A47] (H-YSHGTFTSDYSKYLD[Aib]KRAQEFV[Aib]WLEDEKRNKNPPS-OH; N-terminus assumed)
3.16,> 1000,CC(C)C[C@H](NC(=O)[C@H](Cc1ccc(O)cc1)NC(=O)[C@H](CCCCN)NC(=O)[C@H](CO)NC(=O)[C@H](Cc1ccc(O)cc1)NC(=O)[C@H](CC(=O)O)NC(=O)[C@H](CO)NC(=O)[C@@H](NC(=O)[C@H](Cc1ccccc1)NC(=O)[C@@H](NC(=O)CNC(=O)[C@H](Cc1c[nH]cn1)NC(=O)[C@H](CO)NC(=O)[C@@H](N)Cc1ccc(O)cc1)[C@@H](C)O)[C@@H](C)O)C(=O)N[C@@H](CC(=O)O)C(=O)NC(C)(C)C(=O)N[C@@H](CCCCN)C(=O)N[C@@H](CCCNC(=N)N)C(=O)N[C@@H](C)C(=O)N[C@@H](CCC(N)=O)C(=O)N[C@@H](CCC(=O)O)C(=O)N[C@@H](Cc1ccccc1)C(=O)N[C@H](C(=O)NC(C)(C)C(=O)N[C@@H](Cc1c[nH]c2ccccc12)C(=O)N[C@@H](CC(C)C)C(=O)N[C@@H](CCC(=O)O)C(=O)N[C@@H](CC(=O)O)C(=O)N[C@@H](CCC(=O)O)C(=O)N[C@@H](CCCCN)C(=O)N[C@@H](CCCNC(=N)N)C(=O)N[C@@H](CC(N)=O)C(=O)N[C@@H](CCCCN)C(=O)N1CCC[C@H]1C(=O)N1CCC[C@H]1C(=O)N1CCC[C@H]1C(=O)N[C@@H](CO)C(=O)O)C(C)C [Compound A50] (H-YSHGTFTSDYSKYLD[Aib]KRAQEFV[Aib]WLEDEKRNKPPPS-OH; N-terminus assumed)
1,> 1000,CC(C)C[C@H](NC(=O)[C@H](Cc1ccc(O)cc1)NC(=O)[C@H](CCCCN)NC(=O)[C@H](CO)NC(=O)[C@H](Cc1ccc(O)cc1)NC(=O)[C@H](CC(=O)O)NC(=O)[C@H](CO)NC(=O)[C@@H](NC(=O)[C@H](Cc1ccccc1)NC(=O)[C@@H](NC(=O)CNC(=O)[C@H](Cc1c[nH]cn1)NC(=O)[C@H](CO)NC(=O)[C@@H](N)Cc1ccc(O)cc1)[C@@H](C)O)[C@@H](C)O)C(=O)N[C@@H](CC(=O)O)C(=O)NC(C)(C)C(=O)N[C@@H](CCCCN)C(=O)N[C@@H](CCCNC(=N)N)C(=O)N[C@@H](C)C(=O)N[C@@H](CCC(N)=O)C(=O)N[C@@H](CCC(=O)O)C(=O)N[C@@H](Cc1ccccc1)C(=O)N[C@H](C(=O)NC(C)(C)C(=O)N[C@@H](Cc1c[nH]c2ccccc12)C(=O)N[C@@H](CC(C)C)C(=O)N[C@@H](CCC(=O)O)C(=O)N[C@@H](CC(=O)O)C(=O)N[C@@H](CCC(=O)O)C(=O)N1CCC[C@H]1C(=O)N[C@@H](CCCCN)C(=O)N[C@@H](CO)C(=O)N[C@@H](CCCCN)C(=O)N[C@@H](CCC(N)=O)C(=O)N1CCC[C@H]1C(=O)N1CCC[C@H]1C(=O)N1CCC[C@H]1C(=O)N[C@@H](CO)C(=O)O)C(C)C [Compound A57] (H-YSHGTFTSDYSKYLD[Aib]KRAQEFV[Aib]WLEDEPKSKQPPPS-OH; N-terminus assumed)
